Source: ChEMBL document CHEMBL1201862, “PubChem BioAssay data set” (2004)
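Assay format: 96-well plates, 48-hour exposure. The concentration for 50% growth inhibition is given as GI50.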 Calls of active or inactive are those of the source. No stated cut-off is given here; in the data, active = GI50 up to about 1.1 µM and inactive = higher.

How the values were obtained:
Assay in all cases: growth of human tumour cells (NCI), 48 h
[1] = system: A549
[2] = system: COLO 205
[3] = system: DU-145
[4] = system: HCC 2998
[5] = system: HOP-92
[6] = system: HT-29
[7] = system: IGROV-1
[8] = system: KM12
[9] = system: MDA-MB-231
[10] = system: NCI-H460
[11] = system: OVCAR-8
[12] = system: RPMI-8226
[13] = system: SF-295
[14] = system: SF-539
[15] = system: SK-MEL-2
[16] = system: SK-OV-3
[17] = system: SNB-19
[18] = system: SNB-75
[19] = system: UACC-257

Measured: GI50

CCOC(=O)c1ccc(/N=c2\oc3ccc(OC)cc3cc2-c2nc3ccccc3[nH]2)cc1
inactive: [1] 51.2 µM | [2] 73.5 µM | [3] > 100 µM | [4] 86.5 µM | [5] > 100 µM | [6] > 100 µM | [7] > 100 µM | [8] > 100 µM | [9] 53.7 µM | [10] > 100 µM | [11] 4.21 µM | [12] > 100 µM | [13] 62.8 µM | [14] 1.99 µM | [15] > 100 µM | [16] 73.8 µM | [17] 42.9 µM | [18] 14.1 µM | [19] > 100 µM

CCC(O)c1ccc(/N=C/c2ccccc2O)cc1 (stereo not given)
inactive: [1] > 100 µM | [2] 49.9 µM | [3] > 100 µM | [4] > 100 µM | [5] > 100 µM | [6] > 100 µM | [7] > 100 µM | [8] > 100 µM | [9] > 100 µM | [10] > 100 µM | [12] > 100 µM | [13] > 100 µM | [14] > 100 µM | [15] > 100 µM | [16] > 100 µM | [17] > 100 µM | [18] > 100 µM

C/C(=N/NC(=S)N(C)CCc1ccccn1)c1cnccn1
inactive: [4] 1.4 µM | [5] 3.35 µM | [15] 4.78 µM | [18] 4.19 µM
active: [1] 0.078 µM | [2] < 0.01 µM | [3] 0.378 µM | [6] < 0.01 µM | [7] < 0.01 µM | [8] 0.0406 µM | [9] < 0.01 µM | [10] 0.047 µM | [11] < 0.01 µM | [12] < 0.01 µM | [13] 0.177 µM | [14] 0.118 µM | [16] 0.0235 µM | [17] 0.437 µM | [19] < 0.015 µM

Clc1cc(OCc2nn3c(Cc4ccccc4)nnc3s2)ccc1OCc1nn2c(Cc3ccccc3)nnc2s1
inactive: [1] 32.2 µM | [2] > 100 µM | [3] 29.6 µM | [4] 44.1 µM | [5] 17.3 µM | [6] 79.1 µM | [7] 30.6 µM | [8] 79.8 µM | [9] 18.5 µM | [10] 65.8 µM | [11] 20.7 µM | [12] 49.7 µM | [13] 19.5 µM | [14] 16.2 µM | [15] > 100 µM | [16] 26.7 µM | [17] 24.6 µM | [18] 15.6 µM | [19] > 100 µM

Nc1ccc(S2(c3ccc(N)cc3)C=C(c3ccccc3)C(c3ccccc3)=C2)cc1
inactive: [1] > 29.4 µM | [2] > 45 µM | [3] > 38.4 µM | [4] > 54 µM | [5] 18.1 µM | [6] > 44.7 µM | [7] > 100 µM | [8] > 54.7 µM | [9] > 24.2 µM | [10] > 22.4 µM | [11] > 26.4 µM | [12] > 64 µM | [13] 16.4 µM | [14] > 25.5 µM | [15] > 26.6 µM | [16] > 26.9 µM | [17] > 45 µM | [18] > 100 µM | [19] > 54.5 µM

C=C(Br)CNC(=O)Nc1ccc(Cl)c(Cl)c1
inactive: [1] 21.5 µM | [2] 16.9 µM | [3] 23.6 µM | [4] 18.5 µM | [5] 19.9 µM | [6] 25.1 µM | [7] 13.6 µM | [8] 17.3 µM | [9] 15.2 µM | [10] 26.5 µM | [12] 17.3 µM | [13] 26 µM | [14] 19.3 µM | [15] 12.6 µM | [16] 29 µM | [17] 21.7 µM | [18] 21.3 µM

O=c1ccc2c(Cl)cccc2o1
inactive: [1] > 100 µM | [2] > 100 µM | [3] > 100 µM | [4] 3.74 µM | [5] > 100 µM | [6] > 10 µM | [7] > 100 µM | [8] > 100 µM | [9] > 100 µM | [10] > 100 µM | [11] > 100 µM | [12] > 100 µM | [13] > 100 µM | [14] > 100 µM | [15] > 100 µM | [17] > 100 µM | [18] > 100 µM | [19] > 100 µM

C=C1CC(C)(COc2cc(=O)oc3ccccc23)OC1=O (stereo not given)
active: [12] 0.637 µM
inactive: [1] 14 µM | [2] 2.03 µM | [3] 6.97 µM | [4] 25.2 µM | [5] 1.2 µM | [6] 3.82 µM | [7] 3.03 µM | [8] 8.02 µM | [9] 7.38 µM | [10] 11.1 µM | [11] 5.21 µM | [13] 12.7 µM | [14] 3.96 µM | [15] 2.51 µM | [16] 10.6 µM | [17] 15.8 µM | [18] 8.07 µM | [19] 1.87 µM

COc1ccc(-c2c(-c3ccc(OC)cc3)n3c(=O)n(C)c(=O)n23)cc1
inactive: [1] 53.3 µM | [2] > 100 µM | [3] 15.6 µM | [4] > 100 µM | [5] 18.8 µM | [7] > 100 µM | [8] > 100 µM | [9] > 100 µM | [11] 17.6 µM | [12] 76.4 µM | [13] > 100 µM | [14] 24.6 µM | [15] 43.2 µM | [16] 50.5 µM | [17] 17.1 µM | [18] > 100 µM | [19] 50.5 µM

CC1CCOc2ccc(cc2)/C=N\c2ccc(cc2)CCc2ccc(cc2)/N=C\c2ccc(cc2)OCC1
inactive: [1] > 100 µM | [2] > 100 µM | [3] > 100 µM | [4] > 100 µM | [5] 60.5 µM | [6] > 100 µM | [7] > 100 µM | [8] > 100 µM | [9] > 100 µM | [10] > 100 µM | [11] > 100 µM | [12] > 100 µM | [13] 70.3 µM | [14] > 100 µM | [15] > 100 µM | [17] > 100 µM | [18] 24.1 µM | [19] > 100 µM

Cc1[nH]nc(C(=O)N/N=C/c2ccccc2Cl)c1/N=N\N(C)C
inactive: [1] > 100 µM | [2] > 100 µM | [3] 4.28 µM | [4] > 100 µM | [5] > 23.9 µM | [6] > 53.3 µM | [7] 40.8 µM | [8] 2.86 µM | [9] > 43.5 µM | [11] 7.98 µM | [12] 2.51 µM | [13] > 54 µM | [14] 5.56 µM | [15] > 100 µM | [16] > 100 µM | [17] > 100 µM | [18] > 31 µM | [19] > 84.7 µM
